Data from patent US12360121B2, “Assay for detection of an A2E-Saposin B complex” (Syracuse University, priority 2016, dated 2025).

Target: T1, Saposin B (Homo sapiens, UniProt P07602)
T1 sequence (P07602 195-273 limits assumed): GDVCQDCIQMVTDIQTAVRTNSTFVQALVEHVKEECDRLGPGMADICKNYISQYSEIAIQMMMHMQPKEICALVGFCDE
Assay: fluorescence spectroscopy showing binding of A2E by Saposin B
Conditions: fluorescence spectroscopy graphs (FIG. 1A, FIG. 1B)
Excerpt: FIG. 1A is a first fluorescence spectroscopy graph showing that Saposin B binds A2E;
FIG. 1B is a second fluorescence spectroscopy graphs showing that Saposin B binds A2E;

Question: With `CC(C=CC1=C(C)CCCC1(C)C)=CC=CC(C)=Cc1cc(C=CC=C(C)C=CC2=C(C)CCCC2(C)C)cc[n+]1CCO` [A2E, N-retinylidene-N-retinylethanolamine] as the compound, how does the “binding of A2E by Saposin B” value read?
Answer: binds
